Key:
[1] = wn = mass fraction of the nth substance listed; conditions: Liquid, gamma densitometer
[2] = Liquid, gamma densitometer

CCCCCCCC [octane] + CCCCCCC
[1]
Conditions | mass density [kg/m3]
303.1 K, 5100 kPa, w2 = 0.5 | 686.2
313.3 K, 5100 kPa, w2 = 0.5 | 678.1
323 K, 5100 kPa, w2 = 0.5 | 670
332.7 K, 5100 kPa, w2 = 0.5 | 663.3
344.1 K, 5100 kPa, w2 = 0.5 | 655.9
353.2 K, 5100 kPa, w2 = 0.5 | 645.5
362.9 K, 5100 kPa, w2 = 0.5 | 638.9
372.3 K, 5100 kPa, w2 = 0.5 | 632.3
374.7 K, 3300 kPa, w2 = 0.255 | 633.2
374.8 K, 8000 kPa, w2 = 0.255 | 640.4
380.5 K, 3200 kPa, w2 = 0.51 | 619.9
380.5 K, 8700 kPa, w2 = 0.51 | 631.1
383.2 K, 5100 kPa, w2 = 0.5 | 623.2
393 K, 5100 kPa, w2 = 0.5 | 611.8
405.1 K, 5100 kPa, w2 = 0.5 | 604.3
413.8 K, 5100 kPa, w2 = 0.5 | 592.5
424.2 K, 5100 kPa, w2 = 0.5 | 584.4
424.4 K, 4900 kPa, w2 = 0.51 | 582.4
424.5 K, 7200 kPa, w2 = 0.51 | 588
429.4 K, 3500 kPa, w2 = 0.255 | 584
429.4 K, 8300 kPa, w2 = 0.255 | 592.3
433.2 K, 5100 kPa, w2 = 0.5 | 573.5
443 K, 5100 kPa, w2 = 0.5 | 560.6
453.1 K, 5100 kPa, w2 = 0.5 | 554.4
464.5 K, 5100 kPa, w2 = 0.5 | 545.2
466.6 K, 3200 kPa, w2 = 0.51 | 535.5
466.7 K, 8600 kPa, w2 = 0.51 | 554.2
473.6 K, 5100 kPa, w2 = 0.5 | 531.6
475.8 K, 4400 kPa, w2 = 0.255 | 538.4
475.9 K, 8500 kPa, w2 = 0.255 | 554.4
484.2 K, 5100 kPa, w2 = 0.5 | 524
492.8 K, 5100 kPa, w2 = 0.5 | 508
503.1 K, 5100 kPa, w2 = 0.5 | 495.9
513.2 K, 5100 kPa, w2 = 0.5 | 483.6
518 K, 4900 kPa, w2 = 0.51 | 479.1
518 K, 7500 kPa, w2 = 0.51 | 494.8
522.4 K, 5100 kPa, w2 = 0.5 | 470.1
525.5 K, 4700 kPa, w2 = 0.255 | 473.6
525.5 K, 7300 kPa, w2 = 0.255 | 493.5
533 K, 5100 kPa, w2 = 0.5 | 451.2
543.3 K, 5100 kPa, w2 = 0.5 | 437.7
549.3 K, 5400 kPa, w2 = 0.51 | 427.9
549.4 K, 8700 kPa, w2 = 0.51 | 461.2
553 K, 5100 kPa, w2 = 0.5 | 415.1
557.2 K, 5300 kPa, w2 = 0.255 | 427.1
557.2 K, 8200 kPa, w2 = 0.255 | 460.9
563.5 K, 5100 kPa, w2 = 0.5 | 394
575.1 K, 5100 kPa, w2 = 0.5 | 372.9
583.8 K, 5100 kPa, w2 = 0.5 | 348.2
591.2 K, 5100 kPa, w2 = 0.5 | 319

O [water]
[2]
Conditions | mass density [kg/m3]
286 K, 3000 kPa | 1000.7
288.3 K, 5000 kPa | 1001.4
303.5 K, 5000 kPa | 996.5
305 K, 3000 kPa | 996.2
322.6 K, 3000 kPa | 988.4
324.8 K, 5000 kPa | 990.7
343.4 K, 3000 kPa | 977.7
344.3 K, 5000 kPa | 981.8
356.4 K, 3000 kPa | 969
358.6 K, 5000 kPa | 966.8
372.3 K, 5000 kPa | 957.1
374.7 K, 3000 kPa | 962.3
384 K, 5000 kPa | 947
391.2 K, 3000 kPa | 945
393.6 K, 5000 kPa | 938.5
403.8 K, 5000 kPa | 932.6
412.5 K, 3000 kPa | 927.7
414.2 K, 5000 kPa | 923
423.2 K, 5000 kPa | 915.2
423.8 K, 3000 kPa | 920.4
432.8 K, 5000 kPa | 903.3
442.5 K, 3000 kPa | 899.6
442.7 K, 5000 kPa | 893.8
452.6 K, 5000 kPa | 884.3
462 K, 5000 kPa | 876.7
462.5 K, 3000 kPa | 880.9
471.4 K, 3000 kPa | 873.1
474.3 K, 5000 kPa | 864.5
483.9 K, 3000 kPa | 858.3
484.1 K, 5000 kPa | 854.6
491.4 K, 5000 kPa | 839.5
492.5 K, 3000 kPa | 841.7
500.4 K, 3000 kPa | 827.9
502.5 K, 5000 kPa | 824.9
511 K, 5000 kPa | 814.1

Source: the NIST ThermoML archive (doi:10.1021/je500314x)
